Experimental data reported in publication PMC12298827, “Subchronic Toxicities of Four Per- and Polyfluoroalkyl Substances (PFASs) by Oral Exposure in Sprague–Dawley Rats” (Toxics, 2025).
Marks after values point to notes of the source that are not given here.

Tested on: male and female Sprague–Dawley rats
Assay: 90-day subchronic oral gavage toxicity study
Type: in vivo, rat
Protocol: Subchronic (90-day) studies were performed in accordance with current U.S. EPA’s Toxic Substances Control Act Good Laboratory Practice (GLP) Standards, with the following two general exceptions to the GLP guidelines: Analysis of the dose formulations was conducted according to RTI-approved Standard Operating Procedures, and corn oil (the vehicle) was not characterized (certificate of analysis from the vendor is available in the appendices to the final reports). Male and female Sprague–Dawley rats (five dose levels plus a control, n = 10/sex/dose group, corn oil vehicle dose volume of 3 mL/kg; oral gavage) were used in these studies, and the rats were euthanized on SD 91. The dose levels for PFHI were 0, 12.5, 25, 50, 100, and 200 mg/kg-day. The dose levels for MHFPK were 0, 18.8, 37.5, 75, 150, and 300 mg/kg-day. The dose levels for PFNAC were 0, 0.1, 0.3, 1.0, 3.0, and 10 mg/kg-day for male rats and 0, 0.3, 1.0, 3.0, 10, and 30 mg/kg-day for female rats. For CTFPA, the dose levels were 0, 1.9, 3.8. 7.5, 15, and 30 mg/kg-day for male rats and 0, 6.3, 12.5, 25, 50, and 100 mg/kg-day for female rats. For each PFAS, three batches of dosing solution were prepared. The time between the batch preparation of the dosing solutions ranged between 29 and 39 days. Blood samples were collected from all the rats at termination for serum chemistry, hematology, coagulation, and the analysis of the parent PFAS chemical in the plasma. In vivo data collection and further detail on the endpoints examined postmortem are described below.
The rats were observed twice daily for morbidity and mortality throughout the study period. At least once prior to randomization to test groups and weekly thereafter, the rats were physically examined, and bodyweights were obtained. Feed consumption was quantified weekly starting on SD 1.
Neurotoxicity was evaluated using the functional observational battery (FOB) and measuring locomotor activity (LMA) 2–4 h post dosing on SDs 78–80 and 80–84, respectively. For both the 14- and 90-day studies, an ophthalmologic examination was conducted prior to randomization and near the end of the study, using indirect ophthalmoscopy and slit–lamp biomicroscopy (as needed) after the administration of a mydriatic solution.
Hematology, biochemistry, and coagulation endpoints were measured at the termination of the study. A Siemens Advia 2120i hematology analyzer (Siemens Healthineers, Erlangen, Germany) was used to measure (or calculate) the parameters related to the complete blood count, leukocyte differential count, and reticulocyte count. The hematology parameters are listed and described in Table 2. The prothrombin time […] and activated partial thromboplastin time (APTT) were measured using an Instrumentation Laboratory (Bedford, MA, USA) ACL Elite Pro coagulation analyzer (laser–nephelometric centrifugal method).
At necropsy, the rats were visually examined for external abnormalities and organ weights (absolute and relative to the BW and brain weight), which were recorded (paired organs weighed together). The tissues were preserved in 10% neutral buffered formalin (NBF), except for the ocular tissues, testes, and epididymides, which were preserved in modified Davidson’s fixative and later transferred to 10% NBF. Bone marrow smears were prepared from the femurs, and the slides were air-dried, fixed in methanol, stained, and stored at room temperature for possible future evaluation. The preserved tissues were embedded in paraffin, sectioned, stained with hematoxylin and eosin, and examined by a board-certified veterinary pathologist.
Statistical analysis was performed using Provantis™ Version 10 or greater (Instem LSS, Limited; Stone, Staffordshire, UK). Differences among the treatment groups compared to the control were evaluated using one-way analysis of variance (ANOVA) if the underlying assumptions of a normal distribution (Shapiro–Wilk test) and the homogeneity of the variance (Levene’s test) were satisfied. […]

With `C=CC(=O)OCC(F)(F)C(F)(F)C(F)(F)C(F)(F)C(F)(F)C(F)(F)C(F)(F)C(F)F` [PFNAC, 1H,1H,9H-Perfluorononyl acrylate] the “Bodyweight (BW) and bodyweight gain” value (90-day, both sexes, all doses) was “None in females; effects in males at 10 mg/kg-day were not considered adverse because they did not persist through the study (days 8–29)”, the Clinical observations (90-day, both sexes, all doses) was “None” and the Coagulation endpoints (90-day, both sexes, all doses) was “Males at ≥1 mg/kg-day, mildly shortened APTT, not considered as biologically significant”. For the same compound, the Feed consumption (90-day, both sexes, all doses) was “Increased in males and females in some dose groups during some time periods, not considered as adverse (not persistent or consistent although sometimes statistically significant)”, the Functional observational battery (90-day, both sexes, all doses) was “Some changes, all considered as incidental and non-adverse” and the Gross lesions (90-day, both sexes, all doses) was “None considered as PFNAC related”. For the same compound, the Hematology (90-day, both sexes, all doses) was “No changes in females; Males—minimal decreases in red cell mass (HGB, HCT, and RBC) at ≥0.1 mg/kg-day, minimal decreases in absolute reticulocytes at ≥1 mg/kg and from minimal to mild decreases in neutrophils and eosinophils at ≥0.1 mg/kg-day ^2”, the Histopathology (90-day, both sexes, all doses) was “The kidney and liver ^4 of males at ≥0.3 mg/kg-day and females at 30 mg/kg-day; the thyroid gland in males” and the Locomotor activity (90-day, both sexes, all doses) was “No effects”. The Morbidity and mortality (90-day, both sexes, all doses) was “None”, the Ophthalmology (90-day, both sexes, all doses) was “No ocular lesions” and the Organ weight changes (90-day, both sexes, all doses) was “Mean absolute and/or relative organ weight increases in the liver and kidneys of males at ≥0.3 mg/kg-day and females at ≥3 mg/kg-day”. For the same compound, the “BMD10, absolute kidney weight increase” value (female) was 13.4 mg/kg-day, the “BMD10, absolute liver weight increase” value (female) was 11.2 mg/kg-day and the “BMD10, relative kidney weight increase” value (female) was 6.0 mg/kg-day. For the same compound, the “BMD10, relative liver weight increase” value (female) was 12.8 mg/kg-day, the “BMDL, absolute kidney weight increase” value (female) was 2.68 mg/kg-day and the “BMDL, absolute liver weight increase” value (female) was 8.8 mg/kg-day. The “BMDL, relative kidney weight increase” value (female) was 0.8 * mg/kg-day, the “BMDL, relative liver weight increase” value (female) was 10.1 mg/kg-day and the “LOEL, absolute kidney weight increase” value (female) was 10 mg/kg-day. The “LOEL, absolute liver weight increase” value (female) was 30 mg/kg-day, the “LOEL, relative kidney weight increase” value (female) was 3 mg/kg-day and the “LOEL, relative liver weight increase” value (female) was 30 mg/kg-day. For the same compound, the “NOEL, absolute kidney weight increase” value (female) was 3 mg/kg-day, the “NOEL, absolute liver weight increase” value (female) was 10 mg/kg-day and the “NOEL, relative kidney weight increase” value (female) was 1 mg/kg-day. The “NOEL, relative liver weight increase” value (female) was 10 mg/kg-day, the A/G (female, 0.1 mg/kg-day) was 1.11±0.08 ratio and the ALB (female, 0.1 mg/kg-day) was 4.36 ± 0.22 g/dL. For the same compound, the ALPi (female, 0.1 mg/kg-day) was 78.0±24.1 U/L, the BUN (female, 0.1 mg/kg-day) was 15.7 ± 1.3 mg/dL and the CHOL (female, 0.1 mg/kg-day) was 102.1 ± 16.7 mg/dL. The GLOB (female, 0.1 mg/kg-day) was 3.93 ± 0.12 g/dL, the GLUC (female, 0.1 mg/kg-day) was 99.4 ± 11.9 mg/dL and the “% BW Gain” value (female, 0.3 mg/kg-day) was 47.16%. The “% Diff, % BW Gain” value (female, 0.3 mg/kg-day) was -3.35%, the “% Diff, Total BW change” value (female, 0.3 mg/kg-day) was -2.86% and the “% Diff, Total Food Consumed” value (female, 0.3 mg/kg-day) was 4.16%. The A/G (female, 0.3 mg/kg-day) was 1.10±0.06 ratio, the ABEOS (female, 0.3 mg/kg-day) was 0.089±0.035 K/µL and the ABNEUT (female, 0.3 mg/kg-day) was 1.725±1.311 K/µL. The ABRETi (female, 0.3 mg/kg-day) was 188.23±26.07 10^9/L, the ALB (female, 0.3 mg/kg-day) was 4.44 ± 0.33 g/dL and the ALPi (female, 0.3 mg/kg-day) was 54.8±10.4 U/L. The APTT (female, 0.3 mg/kg-day) was 21.25 s, the BUN (female, 0.3 mg/kg-day) was 16.8 ± 3.3 mg/dL and the CHOL (female, 0.3 mg/kg-day) was 99.7 ± 15.0 mg/dL. For the same compound, the GLOB (female, 0.3 mg/kg-day) was 4.05 ± 0.18 g/dL, the GLUC (female, 0.3 mg/kg-day) was 104.6 ± 13.0 mg/dL and the HCT (female, 0.3 mg/kg-day) was 41.35±1.64%. The HGB (female, 0.3 mg/kg-day) was 13.21 ± 0.43 g/dL, the “Kidney Weight” value (female, 0.3 mg/kg-day) was 1.74 g and the “Kidney/Body Weight” value (female, 0.3 mg/kg-day) was 0.59%. The “Kidney/Brain Weight” value (female, 0.3 mg/kg-day) was 91.4%, the “Liver Weight” value (female, 0.3 mg/kg-day) was 7.76 g and the “Liver/Body Weight” value (female, 0.3 mg/kg-day) was 2.62%. The “Liver/Brain Weight” value (female, 0.3 mg/kg-day) was 408%, the MPV (female, 0.3 mg/kg-day) was 7.62 ± 0.63 fL and the PT (female, 0.3 mg/kg-day) was 13.79 s. For the same compound, the RBC (female, 0.3 mg/kg-day) was 7.177±0.276 M/µL, the “Total BW change” value (female, 0.3 mg/kg-day) was 98.25 g and the “Total Food Consumed” value (female, 0.3 mg/kg-day) was 1466 g. For the same compound, the “% BW Gain” value (female, 1.0 mg/kg-day) was 45.99%, the “% Diff, % BW Gain” value (female, 1.0 mg/kg-day) was -5.73% and the “% Diff, Total BW change” value (female, 1.0 mg/kg-day) was -6.27%. For the same compound, the “% Diff, Total Food Consumed” value (female, 1.0 mg/kg-day) was 2.64%, the A/G (female, 1.0 mg/kg-day) was 1.13±0.06 ratio and the ABEOS (female, 1.0 mg/kg-day) was 0.086±0.028 K/µL. The ABNEUT (female, 1.0 mg/kg-day) was 1.468±0.616 K/µL, the ABRETi (female, 1.0 mg/kg-day) was 180.48±14.00 10^9/L and the ALB (female, 1.0 mg/kg-day) was 4.43 ± 0.26 g/dL. It also gave an ALPi (female, 1.0 mg/kg-day) of 52.1±13.7 U/L, an APTT (female, 1.0 mg/kg-day) of 20.13 s and a BUN (female, 1.0 mg/kg-day) of 13.9 ± 2.0 mg/dL. It also gave a CHOL (female, 1.0 mg/kg-day) of 94.3 ± 18.7 mg/dL, a GLOB (female, 1.0 mg/kg-day) of 3.94 ± 0.19 g/dL and a GLUC (female, 1.0 mg/kg-day) of 100.9 ± 12.7 mg/dL. The HCT (female, 1.0 mg/kg-day) was 41.13±1.98% and the HGB (female, 1.0 mg/kg-day) was 13.19 ± 0.73 g/dL.
